Test results reported in patent US12577206B2 (BRISTOL-MYERS SQUIBB COMPANY, priority 2020, dated 2026).

Key:
human FPR2 = target: T1, human FPR2 (Homo sapiens, UniProt P25090); assay: FPR2 cyclic adenosine monophosphate (cAMP) assay; format: cell-based; details: CHO cells overexpressing human FPR2; forskolin 5 μM; inhibition of cAMP production; HTRF; read-out: hFPR2 cAMP2 EC50
T1 sequence (P25090 1-351): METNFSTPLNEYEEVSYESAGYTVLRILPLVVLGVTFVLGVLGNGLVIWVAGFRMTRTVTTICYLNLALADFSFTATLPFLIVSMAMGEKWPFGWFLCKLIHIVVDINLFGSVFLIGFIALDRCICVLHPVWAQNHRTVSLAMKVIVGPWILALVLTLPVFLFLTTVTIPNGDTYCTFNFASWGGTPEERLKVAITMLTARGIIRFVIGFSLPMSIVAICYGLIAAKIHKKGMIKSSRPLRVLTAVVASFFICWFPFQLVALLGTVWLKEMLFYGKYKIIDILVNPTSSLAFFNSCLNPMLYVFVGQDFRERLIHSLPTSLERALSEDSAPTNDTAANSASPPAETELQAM
Procedure, shortened: (§1)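 CHO cells overexpressing human FPR1 (4,000/well) or FPR2 (2,000/well) were incubated 30 min at room temperature with compound (0.020 nM to 100 μM, 1% DMSO), IBMX 200 μM, and forskolin at 10 μM (FPR1) or 5 μM (FPR2), all final. HTRF cAMP read-out; inhibition fitted by 4-parameter logistic equation.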

human FPR1 = target: T2, human FPR1 (Homo sapiens, UniProt P21462); assay: FPR1 cyclic adenosine monophosphate (cAMP) assay; format: cell-based; details: CHO cells overexpressing human FPR1; forskolin 10 μM; inhibition of cAMP production; HTRF; read-out: hFPR1 cAMP2 EC50
T2 sequence (P21462 1-350): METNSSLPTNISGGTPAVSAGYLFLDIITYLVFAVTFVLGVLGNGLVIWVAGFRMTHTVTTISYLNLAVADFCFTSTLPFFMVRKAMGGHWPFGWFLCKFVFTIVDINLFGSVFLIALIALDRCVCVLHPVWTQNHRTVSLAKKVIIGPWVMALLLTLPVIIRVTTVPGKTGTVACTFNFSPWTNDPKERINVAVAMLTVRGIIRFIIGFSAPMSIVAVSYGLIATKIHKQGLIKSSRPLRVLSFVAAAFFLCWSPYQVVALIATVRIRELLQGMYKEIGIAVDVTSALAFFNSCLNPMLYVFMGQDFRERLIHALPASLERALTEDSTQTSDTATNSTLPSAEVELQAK
Procedure, shortened: as §1

| Structure (SMILES) | EC50 (human FPR2) [µM] | EC50 (human FPR1) [µM] |
| --- | --- | --- |
| COc1cc(F)c(-c2c(NC(=O)c3ccc(OC(F)F)cc3)c(=O)n(-c3cc(OC)ccc3C#N)n2C)c(F)c1 [Example 183, N-[2-(2-cyano-5-methoxyphenyl)-5-(2,6-difluoro-4-methoxyphenyl)-1-methyl-3-oxo-2,3-dihydro-1H-pyrazol-4-yl]-4-(difluoromethoxy)benzamide] | 0.011 | 3.9 |
| COc1cc(F)c(-c2c(NC(=O)c3ccc(OC(F)F)cc3)c(=O)n(-c3cc(Cl)cc(C(F)(F)F)c3)n2C)c(F)c1 [Example 131, N-{2-[3-chloro-5-(trifluoromethyl)phenyl]-5-(2,6-difluoro-4-methoxyphenyl)-1-methyl-3-oxo-2,3-dihydro-1H-pyrazol-4-yl}-4-(difluoromethoxy)benzamide] | 0.011 | > 10 |
| COc1cc(F)c(-c2c(NC(=O)c3ccc(OC(F)F)cc3)c(=O)n(-c3cccc(N4CCOCC4)n3)n2C)c(F)c1 [Example 79, N-[5-(2,6-difluoro-4-methoxyphenyl)-1-methyl-2-[6-(morpholin-4-yl)pyridin-2-yl]-3-oxo-2,3-dihydro-1H-pyrazol-4-yl]-4-(difluoromethoxy)benzamide] | 0.01 | > 10 |
| CCOc1cc(-n2c(=O)c(NC(=O)c3ccc(OC(F)F)cc3)c(-c3c(F)cc(OC)cc3F)n2C)cc(C(F)(F)F)c1 [Example 122, N-[5-(2,6-difluoro-4-methoxyphenyl)-2-[3-ethoxy-5-(trifluoromethyl)phenyl]-1-methyl-3-oxo-2,3-dihydro-1H-pyrazol-4-yl]-4-(difluoromethoxy)benzamide] | 0.021 | > 10 |
| COc1ccc(-c2c(NC(=O)c3ccc(OC(F)F)cc3)c(=O)n(-c3ncccc3C(F)(F)F)n2C)cc1Cl [Example 221, N-(5-(3-chloro-4-methoxyphenyl)-1-methyl-3-oxo-2-(3-(trifluoromethyl)pyridin-2-yl)-2,3-dihydro-1H-pyrazol-4-yl)-4-(difluoromethoxy)benzamide] | 0.141 | > 5 |
| COc1cc(F)c(-c2c(NC(=O)c3ccc(OC(F)F)cc3)c(=O)n(-c3cccn(C)c3=O)n2C)c(F)c1 [Example 395, N-(5-(2,6-Difluoro-4-methoxyphenyl)-1-methyl-2-(1-methyl-2-oxo-1,2-dihydropyridin-3-yl)-3-oxo-2,3-dihydro-1H-pyrazol-4-yl)-4-(difluoromethoxy)benzamide] | 0.061 | > 10 |
| [2H]C([2H])([2H])Oc1cc(F)c(-c2c(NC(=O)c3ccc(OC(F)F)cc3)c(=O)n(-c3cc(C(F)F)ccn3)n2C)c(F)c1 [Example 397, N-(5-(2,6-difluoro-4-(methoxy-d3)phenyl)-2-(4-(difluoromethyl)pyridin-2-yl)-1-methyl-3-oxo-2,3-dihydro-1H-pyrazol-4-yl)-4-(difluoromethoxy)benzamide] | 0.008 | > 10 |
| COC(=O)c1cncc(-n2c(=O)c(NC(=O)c3ccc(OC(F)F)cc3)c(-c3c(F)cc(OC)cc3F)n2C)c1 [Example 128, methyl 5-[3-(2,6-difluoro-4-methoxyphenyl)-4-[4-(difluoromethoxy)benzamido]-2-methyl-5-oxo-2,3-dihydro-1H-pyrazol-1-yl]pyridine-3-carboxylate] | 0.007 | 0.019 |
| COc1ccnc(-n2c(=O)c(NC(=O)c3ccc(OC(F)F)cc3)c(-c3c(F)cc(OC)cc3F)n2C)c1 [Example 59, N-[5-(2,6-difluoro-4-methoxyphenyl)-2-(4-methoxypyridin-2-yl)-1-methyl-3-oxo-2,3-dihydro-1H-pyrazol-4-yl]-4-(difluoromethoxy)benzamide] | 0.008 | > 10 |
| CC(C)Oc1cc(OCCO)nc(-n2c(=O)c(NC(=O)c3ccc(OC(F)F)cc3)c(-c3c(F)cc(Cl)cc3F)n2C)c1 [Example 399, N-(5-(4-chloro-2,6-difluorophenyl)-2-(6-(2-hydroxyethoxy)-4-isopropoxypyridin-2-yl)-1-methyl-3-oxo-2,3-dihydro-1H-pyrazol-4-yl)-4-(difluoromethoxy)benzamide] | 0.011 | 0.55 |
| COc1cc(F)c(-c2c(NC(=O)c3ccc(OC(F)F)cc3)c(=O)n(-c3ncccc3C#N)n2C)c(F)c1 [Example 55, N-[2-(3-cyanopyridin-2-yl)-5-(2,6-difluoro-4-methoxyphenyl)-1-methyl-3-oxo-2,3-dihydro-1H-pyrazol-4-yl]-4-(difluoromethoxy)benzamide] | 0.008 | 9.6 |
| COc1cc(F)c(-c2c(NC(=O)c3ccc(OC(F)F)cc3)c(=O)n(-c3cccc(N4CCN(S(C)(=O)=O)CC4)n3)n2C)c(F)c1 [Example 213, N-[5-(2,6-difluoro-4-methoxyphenyl)-2-[6-(4-methanesulfonylpiperazin-1-yl)pyridin-2-yl]-1-methyl-3-oxo-2,3-dihydro-1H-pyrazol-4-yl]-4-(difluoromethoxy)benzamide] | 0.016 | > 10 |
| COc1cc(F)c(-c2c(NC(=O)c3ccc(C4CC4)cc3)c(=O)n(-c3ccccc3)n2C)c(F)c1 [Example 16, 4-cyclopropyl-N-[5-(2,6-difluoro-4-methoxyphenyl)-1-methyl-3-oxo-2-phenyl-2,3-dihydro-1H-pyrazol-4-yl]benzamide] | 0.03 | > 10 |
| COc1cc(F)c(-c2c(NC(=O)c3ccc(OC(F)F)cc3)c(=O)n(-c3cc(OCC4CCCO4)cc(C)n3)n2C)c(F)c1 (stereo not drawn) [Example 391, N-(5-(2,6-Difluoro-4-methoxyphenyl)-1-methyl-2-(6-methyl-4-((tetrahydrofuran-2-yl)methoxy)pyridin-2-yl)-3-oxo-2,3-dihydro-1H-pyrazol-4-yl)-4-(difluoromethoxy)benzamide] | 0.006 | 0.24 |

The remaining lines, values ahead:

| EC50 (human FPR2) [µM] | EC50 (human FPR1) [µM] | Structure (SMILES) |
| --- | --- | --- |
| 0.004 | > 10 | COc1cc(F)c(-c2c(NC(=O)c3ccc(OC(F)F)cc3)c(=O)n(-c3nc(C(F)(F)F)ccc3C#N)n2C)c(F)c1 [Example 157, N-{2-[3-cyano-6-(trifluoromethyl)pyridin-2-yl]-5-(2,6-difluoro-4-methoxyphenyl)-1-methyl-3-oxo-2,3-dihydro-1H-pyrazol-4-yl}-4-(difluoromethoxy)benzamide] |
| 0.006 | > 10 | COc1cc(C)cc(-n2c(=O)c(NC(=O)c3ccc(OC(F)F)cc3)c(-c3c(F)cc(OC)cc3F)n2C)c1 [Example 121, N-[5-(2,6-difluoro-4-methoxyphenyl)-2-(3-methoxy-5-methylphenyl)-1-methyl-3-oxo-2,3-dihydro-1H-pyrazol-4-yl]-4-(difluoromethoxy)benzamide] |
| 0.003 | 0.003 | COc1cc(F)c(-c2c(NC(=O)c3ccc(OC(F)F)cc3)c(=O)n(-c3cccc(OC(F)F)c3)n2C)c(F)c1 [Example 177, N-[5-(2,6-difluoro-4-methoxyphenyl)-2-[3-(difluoromethoxy)phenyl]-1-methyl-3-oxo-2,3-dihydro-1H-pyrazol-4-yl]-4-(difluoromethoxy)benzamide] |
| 0.002 | > 10 | COc1cc(C2CCCN(CCO)C2)nc(-n2c(=O)c(NC(=O)c3ccc(OC(F)F)cc3)c(-c3c(F)cc(OC)cc3F)n2C)c1 (stereo not drawn) [Example 338, N-(5-(2,6-Difluoro-4-methoxyphenyl)-2-(6-(1-(2-hydroxyethyl)piperidin-3-yl)-4-methoxypyridin-2-yl)-1-methyl-3-oxo-2,3-dihydro-1H-pyrazol-4-yl)-4-(difluoromethoxy)benzamide] |
| 0.005 | 2.7 | COc1cc(F)c(-c2c(NC(=O)c3ccc(OC(F)F)cc3)c(=O)n(-c3nc(N4CCN(CC(F)(F)F)CC4)ccc3Cl)n2C)c(F)c1 [Example 239, N-(2-{3-chloro-6-[4-(2,2,2-trifluoroethyl)piperazin-1-yl]pyridin-2-yl}-5-(2,6-difluoro-4-methoxyphenyl)-1-methyl-3-oxo-2,3-dihydro-1H-pyrazol-4-yl)-4-(difluoromethoxy)benzamide] |
| 0.005 | 0.005 | COc1cc(F)c(-c2c(NC(=O)c3ccc(OC(F)F)cc3)c(=O)n(-c3cccc(-n4ccc(C)n4)n3)n2C)c(F)c1 [Example 69, N-[5-(2,6-difluoro-4-methoxyphenyl)-1-methyl-2-[6-(3-methyl-1H-pyrazol-1-yl)pyridin-2-yl]-3-oxo-2,3-dihydro-1H-pyrazol-4-yl]-4-(difluoromethoxy)benzamide] |
| 0.005 | 0.74 | COc1cc(F)c(-c2c(NC(=O)c3ccc(OC(F)F)cc3)c(=O)n(-c3cc(OCC(C)O)cc(C)n3)n2C)c(F)c1 (stereo not drawn) [Example 394, N-(5-(2,6-Difluoro-4-methoxyphenyl)-2-(4-(2-hydroxypropoxy)-6-methylpyridin-2-yl)-1-methyl-3-oxo-2,3-dihydro-1H-pyrazol-4-yl)-4-(difluoromethoxy)benzamide] |
